Laboratory results as given in patent publication US20100317524A1, “Sulfonylureas” (Bayer CropScience AG, priority 2005, published 2010).

Key:
[1] = test system: weed plants such as Sinapis alba, Chrysanthemum segetum, Avena sativa, Stellaria media, Echinochloa crus-galli, Lolium multiflorum, Setaria viridis, Abutilon …; assay: Pre-emergence effect on weeds (greenhouse pot test, visual scoring); format: in vivo; conditions: applied pre-emergence at a rate of 0.3 kg or less of active substance per hectare; visual scoring after 3 to 4 weeks vs untreated controls
Excerpt: Seeds or sections of rhizome from monocot and dicot weed plants were laid out in sandy loam soil in cardboard pots, and covered with soil. The compounds of the invention, formulated as wettable powders or emulsifiable concentrates, were then applied, in the form of aqueous suspensions or emulsions, at various dosages, onto the surface of the covering earth, at an application rate of 600 to 800 l of water per hectare (converted). Following the treatment, the pots were placed in a greenhouse and maintained under good growth conditions for the weeds. Visual scoring of the plant damage or emergence damage was made when the test plants had emerged, after a test time of 3 to 4 weeks, in comparison to untreated controls.

[2] = test system: weed plants such as Sinapis alba, Echinochloa crus-galli, Lolium multiflorum, Chrysanthemum segetum, Setaria viridis, Abutilon theophrasti, Amaranthus …; assay: Post-emergence effect on weeds (greenhouse pot test, visual scoring); format: in vivo; conditions: applied post-emergence (three-leaf stage) at a rate of 0.3 kg or less of active substance per hectare; visual scoring after about 3 to 4 weeks vs untreated controls
Method: Seeds or sections of rhizome from monocot and dicot broadleaf weeds were laid out in sandy loam soil in plastic pots, covered with earth, and cultivated in a greenhouse under good growth conditions. Three weeks after sowing, the test plants were treated at the three-leaf stage. The compounds of the invention, formulated as wettable powders or as emulsion concentrates, were sprayed in different dosages onto the green parts of the plants, at an application rate of 600 to 800 l of water per hectare (converted). After the test plants had stood in the greenhouse under optimum growth conditions for a period of about 3 to 4 weeks, the effect of the products was scored visually in comparison to untreated controls.

| Structure (SMILES) | herbicidal action against weed plants, pre-emergence [1] | herbicidal action against weed plants, post-emergence [2] |
| --- | --- | --- |
| CCOc1cccc(I)c1S(=O)(=O)NC(=O)Nc1nc(C)nc(OC)n1 [Compound 1.165] | very good herbicidal action | very good herbicidal action |
| CCOc1cccc(I)c1S(=O)(=O)NC(=O)Nc1nc(OC)nc(OC)n1 [Compound 1.168] | very good herbicidal action | very good herbicidal action |
| CCOc1cccc(I)c1S(=O)(=O)NC(=O)Nc1nc(C)cc(C)n1 [Compound 1.166] | very good herbicidal action | very good herbicidal action |
| CCC(C)Oc1cccc(I)c1S(=O)(=O)NC(=O)Nc1nc(OC)cc(OC)n1 (stereo not drawn) [Compound 1.196] | very good herbicidal action | very good herbicidal action |
| Cc1cc(C)nc(NC(=O)NS(=O)(=O)c2c(F)cccc2I)n1 [Compound 1.003] | very good herbicidal action | very good herbicidal action |
| COc1nc(NC(=O)NS(=O)(=O)c2c(I)cccc2OCC(F)F)nc(OC)n1 [Compound 1.355] | very good herbicidal action | very good herbicidal action |
| COc1nc(C)nc(NC(=O)NS(=O)(=O)c2c(I)cccc2OC(F)(F)F)n1 [Compound 1.306] | very good herbicidal action | very good herbicidal action |
| COc1cc(Cl)nc(NC(=O)NS(=O)(=O)c2c(I)cccc2C(F)(F)F)n1 [Compound 1.100] | very good herbicidal action | very good herbicidal action |
| COc1nc(C)nc(NC(=O)NS(=O)(=O)c2c(I)cccc2OC(C)C)n1 [Compound 1.182] | very good herbicidal action | very good herbicidal action |
| COc1cc(OC)nc(NC(=O)NS(=O)(=O)c2c(I)cccc2OC(F)F)n1 [Compound 1.321] | very good herbicidal action | very good herbicidal action |
| COc1nc(C)nc(NC(=O)NS(=O)(=O)c2c(I)cccc2OC(C)C(F)(F)F)n1 (stereo not drawn) [Compound 1.363] | very good herbicidal action | very good herbicidal action |
| Cc1cc(C)nc(NC(=O)NS(=O)(=O)c2c(I)cccc2OCC(F)(F)C(F)(F)F)n1 [Compound 1.371] | very good herbicidal action | very good herbicidal action |
| COc1cc(Cl)nc(NC(=O)NS(=O)(=O)c2c(I)cccc2OC(C)C(F)(F)F)n1 (stereo not drawn) [Compound 1.365] | very good herbicidal action | very good herbicidal action |
| COc1cc(OC)nc(NC(=O)NS(=O)(=O)c2c(I)cccc2SC)n1 [Compound 1.389] | very good herbicidal action | very good herbicidal action |
| COc1cc(Cl)nc(NC(=O)NS(=O)(=O)c2c(I)cccc2OCC(F)(F)F)n1 [Compound 1.344] | very good herbicidal action | very good herbicidal action |
| COc1nc(C)nc(NC(=O)NS(=O)(=O)c2c(I)cccc2OCC(F)(F)F)n1 [Compound 1.342] | very good herbicidal action | very good herbicidal action |
| Cc1cc(C)nc(NC(=O)NS(=O)(=O)c2c(I)cccc2OC(C)C(F)(F)F)n1 (stereo not drawn) [Compound 1.364] | very good herbicidal action | very good herbicidal action |
| CCCCOc1cccc(I)c1S(=O)(=O)NC(=O)Nc1nc(Cl)cc(OC)n1 [Compound 1.555] | very good herbicidal action | very good herbicidal action |
| COc1nc(C)nc(NC(=O)NS(=O)(=O)c2c(C)cccc2I)n1 [Compound 1.016] | very good herbicidal action | very good herbicidal action |
| COc1nc(C)nc(NC(=O)NS(=O)(=O)c2c(I)cccc2C(F)(F)F)n1 [Compound 1.095] | very good herbicidal action | very good herbicidal action |

| Structure (SMILES) | herbicidal action against weed plants, pre-emergence [1] | herbicidal action against weed plants, post-emergence [2] |
| --- | --- | --- |
| COc1cc(Cl)nc(NC(=O)NS(=O)(=O)c2c(I)cccc2OCC2CC2)n1 [Compound 1.238] | very good herbicidal action | very good herbicidal action |
| CCOc1cccc(I)c1S(=O)(=O)NC(=O)Nc1nc(Cl)cc(OC)n1 [Compound 1.167] | very good herbicidal action | very good herbicidal action |
| Cc1cc(C)nc(NC(=O)NS(=O)(=O)c2c(I)cccc2C(F)(F)F)n1 [Compound 1.099] | very good herbicidal action | very good herbicidal action |
| COc1nc(NC(=O)NS(=O)(=O)c2c(I)cccc2OS(C)(=O)=O)nc(OC)n1 [Compound 1.476] | very good herbicidal action | very good herbicidal action |
| COc1nc(NC(=O)NS(=O)(=O)c2c(I)cccc2OC)nc(OC)n1 [Compound 1.159] | very good herbicidal action | very good herbicidal action |
| COc1cc(OC)nc(NC(=O)NS(=O)(=O)c2c(I)cccc2OS(=O)(=O)N(C)C)n1 [Compound 1.507] | very good herbicidal action | very good herbicidal action |
| COc1cc(Cl)nc(NC(=O)NS(=O)(=O)c2c(OC)ccc(Cl)c2I)n1 [Compound 1.601] | very good herbicidal action | very good herbicidal action |
| COc1nc(C)nc(NC(=O)NS(=O)(=O)c2c(I)cccc2OC(F)F)n1 [Compound 1.325] | very good herbicidal action | very good herbicidal action |
| Cc1cc(C)nc(NC(=O)NS(=O)(=O)c2c(I)cccc2OCC(F)(F)F)n1 [Compound 1.343] | very good herbicidal action | very good herbicidal action |
| COc1nc(C)nc(NC(=O)NS(=O)(=O)c2c(I)cccc2OCC2CC2)n1 [Compound 1.233] | very good herbicidal action | very good herbicidal action |
| COc1cc(OC)nc(NC(=O)NS(=O)(=O)c2c(I)cccc2C(F)(F)F)n1 [Compound 1.091] | very good herbicidal action | very good herbicidal action |
| CCCOc1cccc(I)c1S(=O)(=O)NC(=O)Nc1nc(C)cc(C)n1 [Compound 1.173] | very good herbicidal action | very good herbicidal action |
| CCCCOc1cccc(I)c1S(=O)(=O)NC(=O)Nc1nc(C)nc(OC)n1 [Compound 1.553] | very good herbicidal action | very good herbicidal action |
| CCCOc1cccc(I)c1S(=O)(=O)NC(=O)Nc1nc(OC)nc(OC)n1 [Compound 1.175] | very good herbicidal action | very good herbicidal action |
| COc1cc(Cl)nc(NC(=O)NS(=O)(=O)c2c(I)cccc2OCC(C)C)n1 [Compound 1.563] | very good herbicidal action | very good herbicidal action |
| Cc1cc(C)nc(NC(=O)NS(=O)(=O)c2c(I)cccc2OCC(F)F)n1 [Compound 1.353] | very good herbicidal action | very good herbicidal action |
| COc1cc(Cl)nc(NC(=O)NS(=O)(=O)c2c(I)cccc2OC(C)C)n1 [Compound 1.187] | very good herbicidal action | very good herbicidal action |
| COc1cc(OC)nc(NC(=O)NS(=O)(=O)c2c(F)cccc2I)n1 [Compound 1.001] | very good herbicidal action | very good herbicidal action |
| COc1nc(C)nc(NC(=O)NS(=O)(=O)c2c(OC)ccc(Cl)c2I)n1 [Compound 1.599] | very good herbicidal action | very good herbicidal action |
